Mortality data for 28 compounds are collected here from US20150196033A1, “PESTICIDAL COMPOSITIONS AND PROCESSES RELATED THERETO” (priority 2012, published 2015).

Like-named read-outs stand apart in the source and are kept apart here.

The test system of assay [1] is Beet Armyworm (BAW) (Spodoptera exigua). The experiment in a line: Bioassay on Beet Armyworm (BAW), 128-well diet tray assay. The note with it: Spodoptera exigua, 168 h; for mortality at 50 µg/cm2: read-out: Rating BAW (% Control (or Mortality)). Format: in vivo. The procedure: (§1) Certain molecules disclosed in this document were tested against BAW and CEW using procedures described in the following examples. In the reporting of the results, the “BAW & CEW Rating Table” was used (See Table Section).
Bioassays on BAW (Spodoptera exigua)
(§2) Trays were covered with a clear self-adhesive cover and held at 25° C., 14:10 light-dark for five to seven days. Percent mortality was recorded for the larvae in each well; activity in the eight wells was then averaged. The results are indicated in the table entitled “Table ABC: Biological Results” (See Table Section).

Assay [2] relates to Corn Earworm (CEW) (Helicoverpa zea). The assay can be described thus: Bioassay on Corn Earworm (CEW), 128-well diet tray assay. The format is in vivo. The settings on record: Helicoverpa zea, 168 h; for mortality at 50 µg/cm2: read-out: Rating CEW (% Control (or Mortality)); for mortality at 0.5 µg/cm2: 0.5 μg/cm2 on artificial diet, read-out: Rating CEW (% Control (or Mortality)), *Tested at 0.5 μg/cm2. How it is done:
as §1
Bioassays on CEW (Helicoverpa zea)
as §2

The mark [3] stands for this setting: 50 μg/cm2 on artificial diet, second instar larvae, five to seven days.
[4] abbreviates: second instar larvae, five to seven days.

In the case of `CC(C)C(=O)OCS/C(=N\C(=O)Nc1ccc(-c2ncn(-c3ccc(OC(F)(F)F)cc3)n2)cc1)Nc1ccccc1C(C)C` [Molecule A5, (Z)-((N-(2-Isopropylphenyl)-N′-((4-(1-(4-(trifluoromethoxy)phenyl)-1H-1,2,4-triazol-3-yl)phenyl)carbamoyl)carbamimidoyl)thio)methyl isobutyrate], the mortality at 50 µg/cm2 in assay [1] (setting [3]) and in assay [2] (setting [3]) was 50 to 100% throughout.
Consider `Cc1cccc(C)c1N/C(=N/C(=O)Nc1ccc(-c2ncn(-c3ccc(C(F)(F)F)cc3)n2)cc1)SCOC(=O)CNC(=O)OCc1ccccc1` [Molecule A8, (Z)-((N-(2,6-Dimethylphenyl)-N′-((4-(1-(4-(trifluoromethyl)phenyl)-1H-1,2,4-triazol-3-yl)phenyl)carbamoyl)carbamimidoyl)thio)methyl 2-(((benzyloxy)carbonyl)amino)acetate], for which the mortality at 50 µg/cm2 in assay [1] and in assay [2] was 50 to 100% throughout.
As to `COc1ccc(N/C(=N/C(=O)Nc2ccc(-c3ncn(-c4ccc(OC(F)(F)F)cc4)n3)cc2)SCS[C@@H]2O[C@@H](C)[C@H](OC)[C@@H](OC)[C@H]2OC)c(C)c1` [Molecule A10, (Z)-(((2S,3R,4R,5S,6S)-3,4,5-Trimethoxy-6-methyltetrahydro-2H-pyran-2-yl)thio)methyl N-(4-methoxy-2-methylphenyl)-N′-((4-(1-(4-(trifluoromethoxy)phenyl)-1H-1,2,4-triazol-3-yl)phenyl)carbamoyl) carbamimidothioate], the mortality at 50 µg/cm2 in assay [1] (setting [3]) and in assay [2] (setting [3]) was 50 to 100% in each case.
On to `CC(C)c1ccccc1NC(=O)NC(=O)Nc1ccc(-c2ncn(-c3ccc(OC(F)(F)F)cc3)n2)cc1` [Molecule A13, 1-(2-isopropylphenyl)-3-[[4-[1-[4-(trifluoromethoxy)phenyl]-1,2,4-triazol-3-yl]phenyl]carbamoyl]urea], for which the mortality at 50 µg/cm2 in assay [1] (setting [3]) and in assay [2] (setting [3]) was 50 to 100% throughout.
Take `CC(C)c1ccccc1N1C(=O)CS/C1=N\C(=O)Nc1ccc(-c2ncn(-c3ccc(OC(F)(F)F)cc3)n2)cc1` [Molecule A19, (Z)-1-(3-(2-isopropylphenyl)-4-oxothiazolidin-2-ylidene)-3-(4-(1-(4-(trifluoromethoxy)phenyl)-1H-1,2,4-triazol-3-yl)phenyl)urea]: the mortality at 50 µg/cm2 in assay [1] (setting [3]) and in assay [2] (setting [3]) was 50 to 100% each time.
As to `CC(C)c1ccccc1N/C(S)=C/C(=O)Nc1ccc(-c2ncn(-c3ccc(OC(F)(F)F)cc3)n2)cc1` [Molecule A21, 3-((2-isopropylphenyl)amino)-3-thioxo-N-(4-(1-(4-(trifluoromethoxy)phenyl)-1H-1,2,4-triazol-3-yl)phenyl)propanamide], the mortality at 50 µg/cm2 in assay [1] (setting [3]) and in assay [2] (setting [3]) was 50 to 100% each time.
With `Cc1cccc(C)c1N/C(S)=C/C(=O)Nc1ccc(-c2ncn(-c3ccc(OC(F)(F)F)cc3)n2)cc1` [Molecule A23, 3-((2,6-dimethylphenyl)amino)-3-thioxo-N-(4-(1-(4-(trifluoromethoxy)phenyl)-1H-1,2,4-triazol-3-yl)phenyl)propanamide], the mortality at 50 µg/cm2 in assay [1] (setting [3]) and in assay [2] (setting [3]) was 50 to 100% throughout.
`CC(C)c1ccccc1N1C(=O)CS/C1=C\C(=O)Nc1ccc(-c2ncn(-c3ccc(OC(F)(F)F)cc3)n2)cc1` [Molecule A24, (Z)-2-(3-(2-isopropylphenyl)-4-oxothiazolidin-2-ylidene)-N-(4-(1-(4-(trifluoromethoxy)phenyl)-1H-1,2,4-triazol-3-yl)phenyl)acetamide]: the mortality at 50 µg/cm2 in assay [1] (setting [3]) and in assay [2] (setting [3]) was 50 to 100% each time.
`CC(C)c1ccccc1N/C(S)=C(\C#N)C(=O)Nc1ccc(-c2ncn(-c3ccc(OC(F)(F)F)cc3)n2)cc1` [Molecule A25, (Z)-2-cyano-3-((2-isopropylphenyl)amino)-3-mercapto-N-(4-(1-(4-(trifluoromethoxy)phenyl)-1H-1,2,4-triazol-3-yl)phenyl)acrylamide]: the mortality at 50 µg/cm2 in assay [1] (setting [3]) was 0%; in assay [2] (setting [3]), 0 to 50%.
As for `COc1ccc(N/C(S)=C(\C#N)C(=O)Nc2ccc(-c3ncn(-c4ccc(OC(F)(F)F)cc4)n3)cc2)c(C)c1` [Molecule A26, (Z)-2-Cyano-3-mercapto-3-((4-methoxy-2-methylphenyl)amino)-N-(4-(1-(4-(trifluoromethoxy)phenyl)-1H-1,2,4-triazol-3-yl)phenyl)acrylamide], the mortality at 50 µg/cm2 in assay [1] (setting [3]) and in assay [2] (setting [3]) was 0% in each case.
Turning to `N#C/C(C(=O)Nc1ccc(-c2ncn(-c3ccc(OC(F)(F)F)cc3)n2)cc1)=C(/S)Nc1ccccc1-c1ccccc1` [Molecule A27, (Z)-3-([1,1′-Biphenyl]-2-ylamino)-2-cyano-3-mercapto-N-(4-(1-(4-(trifluoromethoxy)phenyl)-1H-1,2,4-triazol-3-yl)phenyl)acrylamide], the mortality at 50 µg/cm2 is 0% in assay [1] (setting [3]) and 0 to 50% in assay [2] (setting [3]).
With `Cc1ccccc1N/C(S)=C(\C#N)C(=O)Nc1ccc(-c2ncn(-c3ccc(OC(F)(F)F)cc3)n2)cc1` [Molecule A29, (Z)-2-Cyano-3-mercapto-3-(o-tolylamino)-N-(4-(1-(4-(trifluoromethoxy)phenyl)-1H-1,2,4-triazol-3-yl)phenyl)acrylamide], the mortality at 50 µg/cm2 lay within 0 to 50% in assay [1] (setting [3]) and 50 to 100% in assay [2] (setting [3]).
As for `N#C/C(C(=O)Nc1ccc(-c2ncn(-c3ccc(OC(F)(F)F)cc3)n2)cc1)=C(/S)Nc1c(F)cccc1F` [Molecule A30, (Z)-2-Cyano-3-((2,6-difluorophenyl)amino)-3-mercapto-N-(4-(1-(4-(trifluoromethoxy)phenyl)-1H-1,2,4-triazol-3-yl)phenyl)acrylamide], the mortality at 50 µg/cm2 in assay [1] (setting [3]) and in assay [2] (setting [3]) was 0% in each case.
Turning to `CC(C)c1ccccc1N1C(=O)CS/C1=C(/C#N)C(=O)Nc1ccc(-c2ncn(-c3ccc(OC(F)(F)F)cc3)n2)cc1` [Molecule A31, (Z)-2-Cyano-2-(3-(2-isopropylphenyl)-4-oxothiazolidin-2-ylidene)-N-(4-(1-(4-(trifluoromethoxy)phenyl)-1H-1,2,4-triazol-3-yl)phenyl)acetamide], the mortality at 50 µg/cm2 in assay [1] (setting [3]) and in assay [2] (setting [3]) was 50 to 100% in each case.
As to `Cc1cc(C)c(N2C(=O)CS/C2=N\C(=O)Nc2ccc(-c3ncn(-c4ccc(OC(F)(F)F)cc4)n3)cc2)c(C)c1` [Molecule A36], the mortality at 50 µg/cm2 in assay [1] (setting [3]) and in assay [2] (setting [3]) was 50 to 100% in each case.
Regarding `Cc1cc(C)c(N2C(=O)C(C)S/C2=N\C(=O)Nc2ccc(-c3ncn(-c4ccc(OC(F)(F)F)cc4)n3)cc2)c(C)c1` (stereo not drawn) [Molecule A37], the mortality at 50 µg/cm2 in assay [1] (setting [3]) and in assay [2] (setting [3]) was 50 to 100% throughout.
Take `CCC1CS/C(=N\C(=O)Nc2ccc(-c3ncn(-c4ccc(OC(F)(F)F)cc4)n3)cc2)N1c1c(C)cc(C)cc1C` (stereo not drawn) [Molecule A38]: the mortality at 50 µg/cm2 in assay [1] (setting [3]) and in assay [2] (setting [3]) was 50 to 100% throughout.
Turning to `Cc1cccc(C)c1N1CC(C)CS/C1=N\C(=O)Nc1ccc(-c2ncn(-c3ccc(OC(F)(F)F)cc3)n2)cc1` (stereo not drawn) [Molecule A39], the mortality at 50 µg/cm2 in assay [1] (setting [3]) and in assay [2] (setting [3]) was 50 to 100% in each case.
Consider `Cc1cc(C)c(N2/C(=N/C(=O)Nc3ccc(-c4ncn(-c5ccc(OC(F)(F)F)cc5)n4)cc3)SCC2C)c(C)c1` (stereo not drawn) [Molecule A40], for which the mortality at 12.5 µg/cm2 in assay [1] (12.5 μg/cm2 on artificial diet, second instar larvae, five to seven days, read-out: Rating BAW (% Control (or Mortality)), **Tested at 12.5 μg/cm2) lay within 50 to 100%; in assay [2] (12.5 μg/cm2 on artificial diet, second instar larvae, five to seven days, read-out: Rating CEW (% Control (or Mortality)), **Tested at 12.5 μg/cm2) it was 50 to 100%.
Regarding `Cc1cc(C)c(N2CC(C)CS/C2=N\C(=O)Nc2ccc(-c3ncn(-c4ccc(OC(F)(F)F)cc4)n3)cc2)c(C)c1` (stereo not drawn) [Molecule A41], the mortality at 50 µg/cm2 in assay [1] (setting [3]) and in assay [2] (setting [3]) was 50 to 100% throughout.
`O=C(/N=C1\SCC(=O)N1c1ccccc1C1CC1)Nc1ccc(-c2ncn(-c3ccc(OC(F)(F)F)cc3)n2)cc1` [Molecule A66]: the mortality at 50 µg/cm2 in assay [1] (setting [3]) was in the range of 50 to 100%.
With `Cc1cccc(N/C(S)=N/C(=O)Nc2ccc(-c3ncn(-c4ccc(OC(F)(F)F)cc4)n3)cc2)c1C` [Molecule A71], in assay [1] (setting [3]), the mortality at 50 µg/cm2 fell in the range of 50 to 100%.
Same read-out and setting: the same measure for `O=C(/N=C(\S)Nc1ccc(Cl)cc1Cl)Nc1ccc(-c2ncn(-c3ccc(OC(F)(F)F)cc3)n2)cc1` [Molecule A78]: 0%.
With `Cc1ccc(C(C)C)c(N/C(S)=N/C(=O)Nc2ccc(-c3ncn(-c4ccc(OC(F)(F)F)cc4)n3)cc2)c1` [Molecule A83], in assay [1] (setting [3]), the mortality at 50 µg/cm2 lay within 50 to 100%.
Consider `CC(C)(C)c1ccccc1N1C(=O)CS/C1=N\C(=O)Nc1ccc(-c2ncn(-c3ccc(OC(F)(F)F)cc3)n2)cc1` [Molecule A95], for which the mortality at 0.5 µg/cm2 in assay [2] (setting [4]) is 50 to 100%.
As for `COc1ccc(Cl)cc1N/C(S)=N/C(=O)Nc1ccc(-c2ncn(-c3ccc(OC(F)(F)F)cc3)n2)cc1` [Molecule A99], the mortality at 50 µg/cm2 in assay [1] (setting [3]) was found to be 0%.
Take `CC(C)c1ccccc1N1C(=O)CS/C1=N\C(=O)Nc1ccc(-c2nnc(-c3ccc(OC(F)(F)C(F)(F)F)cc3)o2)cc1` [Molecule A102, (Z)-1-(3-(2-isopropylphenyl)-4-oxothiazolidin-2-ylidene)-3-(4-(5-(4-(perfluoroethoxy)phenyl)-1,3,4-oxadiazol-2-yl)phenyl)urea]: the mortality at 0.5 µg/cm2 in assay [2] (setting [4]) was 50 to 100%.
As for `CC(C)c1ccccc1N/C(S)=N/C(=O)Nc1ccc(-c2ncn(-c3ccc(OC(F)(F)C(F)(F)F)cc3)n2)cc1` [Molecule A112], the mortality at 50 µg/cm2 in assay [1] (setting [3]) lay in the range of 50 to 100%.
